For 3 molecules, Activity, inhibition and IC50 results are on record in ChEMBL document CHEMBL3351412, “Design, synthesis and biological evaluation of β-boswellic acid based HDAC inhibitors as inducers of cancer cell death” (Bioorg Med Chem Lett, 2014).

Assay [1] relates to HL-60. The assay is described as follows: Induction of apoptosis in human HL60 cells assessed as loss of mitochondrial membrane potential in P5 quadrant at 1 uM by Rhodamine123 assay (reference value: 3.4%). The class given is functional.
The subject of assay [2] is HL-60. The assay is described as follows: Induction of apoptosis in human HL60 cells assessed as loss of mitochondrial membrane potential in P4 quadrant at 1 uM by Rhodamine123 assay (reference value: 96.6%). The class given is functional.
A short description of assay [3]: Cell cycle arrest in human HL60 cells assessed as accumulation at sub-G1 phase at 5 uM by propidium iodide staining-based flow cytometry (reference value: 2.1%). Particulars: HL-60. Format: functional. In general terms: Flow cytometry measures light scatter and fluorescence of single cells or particles in a stream.
A short description of assay [4]: Cell cycle arrest in human HL60 cells assessed as accumulation at S phase at 1 uM by propidium iodide staining-based flow cytometry (reference value: 17.3%). Format: functional. The settings on record: HL-60.
In assay [5] the target is T1, Histone deacetylase (Homo sapiens) (UniProt Q13547+O15379+Q9UBN7+Q92769+Q9UQL6+Q8WUI4+Q9BY41+Q96DB2+P56524+Q9UKV0+Q969S8). The assay is described as follows: Inhibition of HDAC (unknown origin) at 20 uM. Format: protein assay.
Assay [6] is described as follows: Cytotoxicity against human FR2 cells. Format: cell-based.
The target in assay [7] is T1, Histone deacetylase (Homo sapiens). In words: Inhibition of HDAC (unknown origin) at 50 uM. Format: protein assay.
For another assay, the target named is Histone deacetylase. In words: Inhibition of HDAC (unknown origin). Format: protein assay, Homo sapiens.
The nature of assay [8]: Cytotoxicity against human HL60 cells. The settings on record: HL-60. The class given is functional, cell-based.
Assay [9] concerns the target T1, Histone deacetylase (Homo sapiens). In words: Inhibition of HDAC (unknown origin) at 30 uM. The class given is protein assay.
Assay [10] has the same target. In words: Inhibition of HDAC (unknown origin) at 10 uM. The class given is protein assay.
Assay [11] in a line: Cytotoxicity against human MIAPaCa2 cells. The class given is functional, cell-based. The settings on record: MIA PaCa-2.
Assay [12] deals with T1, Histone deacetylase (Homo sapiens). In words: Inhibition of HDAC (unknown origin) at 1 uM. Format: protein assay.
In the next assay the test system is MCF7. In words: Cytotoxicity against human MCF7 cells. Format: functional, cell-based.
The nature of assay [13]: Cell cycle arrest in human HL60 cells at 5 to 10 uM by propidium iodide staining-based flow cytometry. Format: functional. Particulars: HL-60.
Assay [14] in a line: Cell cycle arrest in human HL60 cells assessed as accumulation at S phase at 5 uM by propidium iodide staining-based flow cytometry (reference value: 17.3%). Format: functional. The settings on record: HL-60.
A short description of assay [15]: Cell cycle arrest in human HL60 cells assessed as accumulation at sub-G1 phase at 1 uM by propidium iodide staining-based flow cytometry (reference value: 2.1%). The class given is functional. Particulars: HL-60.
Assay [16] can be described thus: Cell cycle arrest in human HL60 cells assessed as accumulation at G2/M phase at 5 uM by propidium iodide staining-based flow cytometry (reference value: 21.3%). The settings on record: HL-60. The class given is functional.
Assay [17] is described as follows: Cell cycle arrest in human HL60 cells assessed as accumulation at G1 phase at 1 uM by propidium iodide staining-based flow cytometry (reference value: 58.9%). Format: functional. Particulars: HL-60.
Assay [18] can be described thus: Cell cycle arrest in human HL60 cells assessed as accumulation at G2/M phase at 1 uM by propidium iodide staining-based flow cytometry (reference value: 21.3%). Format: functional. The settings on record: HL-60.
The test system of assay [19] is HL-60. In words: Induction of apoptosis in human HL60 cells assessed as loss of mitochondrial membrane potential in P4 quadrant at 5 uM by Rhodamine123 assay (reference value: 96.6%). Format: functional.
Assay [20] concerns HL-60. The assay is described as follows: Induction of apoptosis in human HL60 cells assessed as loss of mitochondrial membrane potential in P5 quadrant at 5 uM by Rhodamine123 assay (reference value: 3.4%). Format: functional.
A short description of assay [21]: Cell cycle arrest in human HL60 cells assessed as accumulation at G1 phase at 5 uM by propidium iodide staining-based flow cytometry (reference value: 58.9%). The settings on record: HL-60. The class given is functional.
The nature of assay [22]: Cytotoxicity against human HCT116 cells. Format: functional, cell-based. The settings on record: HCT-116.
Another assay deals with A549. In words: Cytotoxicity against human A549 cells. Format: functional, cell-based.

SMILES strings stand for the structures. Active and inactive are the calls of the source. No cut-off for these calls is given here.

By inhibition is commonly meant the percentage by which the read-out fell short of the control. A higher inhibition goes with a response far below the control. The IC50 is the concentration that gives 50% inhibition. Lower therefore signals higher potency. In the case of `C[C@H]1[C@H](C)CC[C@]2(C)CC[C@]3(C)C(=CC(=O)[C@@H]4[C@@]5(C)CC[C@@H](O)[C@](C)(NC(=O)CCCC(=O)NO)[C@@H]5CC[C@]43C)[C@H]12`, the Activity in the assay on HL-60 [1] worked out at 6.7%; with HL-60 [2], 93.3%; in [3], 92.2%; in assay [4], 8%; in assay [14], 0.7%; in assay [15], 6.1%. The Activity in assay [16] was determined as 7.1%; in assay [17] it was 74.5%; in assay [18], 10.7%; in the assay on HL-60 [19], 3.6%; in the assay with HL-60 [20], 96.4%; in assay [21], 7.2%. The inhibition in assay [5] amounted to 70%; in [7], 88%; in assay [9] it was 86%; in assay [10] it was 65%; in assay [12], 23%. Also, the half-maximal inhibitory concentration (IC50) was determined as 1900 nM in [6]; 6 µM on Histone deacetylase; 1600 nM in assay [8]; 15.1 µM in assay [11]; 7.1 µM in the assay on MCF7; 15.1 µM in assay [22]. Moreover, 13 µM corresponded to half-maximal inhibition with A549 (IC50). Also, the outcome in [13] was Active.
For `C[C@H]1[C@H](C)CC[C@]2(C)CC[C@]3(C)C(=CC[C@@H]4[C@@]5(C)CC[C@@H](O)[C@](C)(NC(=O)CCCCCCC(=O)NO)[C@@H]5CC[C@]43C)[C@H]12`, the Activity in the assay on HL-60 [1] came out at 3.2%; in the assay on HL-60 [2], 96.8%; in assay [3] it was 4.5%; in assay [4] it was 16.8%; in assay [14] it was 15.7%; in assay [15], 7.4%. The Activity amounted to 18.6% in [16]; 57.8% in [17]; 16.8% in assay [18]; 70.2% in the assay with HL-60 [19]; 29.8% in the assay with HL-60 [20]; 60.6% in assay [21]. For the same molecule, the IC50 in assay [6] is more than 20000 nM; against Histone deacetylase it was 30 µM; in [8] it was more than 20000 nM; in [11], more than 20 µM; with MCF7 it was more than 20 µM; in assay [22], more than 20 µM. In addition, the IC50 with A549 was more than 20 µM. For the same molecule, the values for the inhibition in assay [7] and in assay [9] were 56% and 50%, respectively.
As to `O=C(CCCCCCC(=O)Nc1ccccc1)NO` [VORINOSTAT], the Activity with HL-60 [1] amounted to 4%; in the assay with HL-60 [2], 96%; in [4] it was 14%; in [15] it was 2.8%; in assay [17], 65.3%; in [18], 17.1%.
